Data taken from article PMC10397291, “Molecular pathway and structural mechanism of human oncochannel TRPV6 inhibition by the phytocannabinoid tetrahydrocannabivarin” (Nature Communications, 2023).
Numbering of substitutions follows the chain as printed. In brackets after ≈: the same amount, converted by molar mass. Several values for one entry are separate records, joined by “and”; a condition that tells them apart may be missing. Identical values can stand only once.

What was measured:
T567A mutant hTRPV6 = target: T1, T567A mutant hTRPV6 (Homo sapiens, UniProt Q9H1D0, T607A); assay: Fura-2 AM Ca2+ uptake, T567A mutant hTRPV6; assay type: cell-based
T1 construct: Full-length wild-type or mutant human TRPV6 was expressed in HEK 293S cells as described above; expressed in transfected cells; host or cells: HEK 293S GnTI- (baculovirus/BacMam transduction)
T1 sequence (Q9H1D0 41-765 T607A limits assumed): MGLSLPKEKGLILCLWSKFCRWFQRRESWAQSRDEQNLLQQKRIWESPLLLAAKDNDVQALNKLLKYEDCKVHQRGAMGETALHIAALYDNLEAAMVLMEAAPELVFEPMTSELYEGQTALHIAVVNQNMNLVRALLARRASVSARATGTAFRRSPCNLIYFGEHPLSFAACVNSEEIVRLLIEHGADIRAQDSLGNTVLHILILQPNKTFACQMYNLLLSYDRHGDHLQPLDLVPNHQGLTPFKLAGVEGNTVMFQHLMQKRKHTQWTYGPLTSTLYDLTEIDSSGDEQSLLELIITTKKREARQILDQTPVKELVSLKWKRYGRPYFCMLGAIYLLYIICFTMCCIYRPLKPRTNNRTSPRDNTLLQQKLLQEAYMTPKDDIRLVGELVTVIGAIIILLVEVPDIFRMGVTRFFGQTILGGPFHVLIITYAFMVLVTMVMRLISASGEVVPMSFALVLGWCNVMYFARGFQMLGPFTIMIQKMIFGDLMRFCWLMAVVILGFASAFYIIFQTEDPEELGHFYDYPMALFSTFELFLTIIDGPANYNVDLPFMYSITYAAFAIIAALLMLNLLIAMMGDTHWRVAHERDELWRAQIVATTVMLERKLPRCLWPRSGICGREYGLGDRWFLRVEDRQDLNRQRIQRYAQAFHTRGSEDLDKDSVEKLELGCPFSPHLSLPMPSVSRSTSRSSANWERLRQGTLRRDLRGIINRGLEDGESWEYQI

[1] = test system: non-transfected HEK293 cells; assay: Fura-2 AM measurements in non-transfected cells (Control, non-specific effects); assay type: cell-based
human TRPV6 = target: T2, human TRPV6 (Homo sapiens, UniProt Q9H1D0); assay: Whole-cell patch-clamp currents, -100 to 70 mV voltage ramp, HEK 293 cells expressing hTRPV6; assay type: cell-based; settings: 50 µM THCV, at –70 mV, n = 8
T2 construct: All functional experiments in this manuscript have been done with the full-length protein, not truncated; expressed in transfected cells; host or cells: HEK 293 (ATCC #CRL-1573), transient, plasmid with IRES-GFP
T2 sequence (Q9H1D0 41-765 limits assumed): T1 sequence (Q9H1D0 41-765 T607A limits assumed) with A567T

TRPV5 = test system: TRPV5; design: method as in PMID 28535500; settings: rat model for osteoarthritis; cited from earlier work
L568Q mutant hTRPV6 = target: T3, L568Q mutant hTRPV6 (Homo sapiens, UniProt Q9H1D0, L608Q); assay: Fura-2 AM Ca2+ uptake, L568Q mutant hTRPV6; assay type: cell-based
T3 construct: Full-length wild-type or mutant human TRPV6 was expressed in HEK 293S cells as described above; expressed in transfected cells; host or cells: HEK 293S GnTI- (baculovirus/BacMam transduction)
T3 sequence (Q9H1D0 41-765 L608Q limits assumed): T1 sequence (Q9H1D0 41-765 T607A limits assumed) with A567T, L568Q

[2] = Solubility of stock in DMSO; assay type: physicochemical; settings: organic solvent or mixture

CCCc1cc(O)c2c(c1)OC(C)(C)[C@@H]1CCC(C)=C[C@@H]21 [THCV, tetrahydrocannabivarin]
IC50 (T567A mutant hTRPV6): 12 ± 0.7 µM | change in F340/F380 evoked by 10 mM Ca2+ (T567A mutant hTRPV6; 1 μM THCV, replicates): 1.267 | change in F340/F380 evoked by 10 mM Ca2+ ([1]; 1 μM THCV, non-transfected Control for L490W): 0.594 and 0.640 and 0.727 and 0.615 and 0.755 and 0.577 and 0.626 and 0.554 | change in F340/F380 evoked by 10 mM Ca2+ ([1]; 1 μM THCV, non-transfected Control for L568Q): 0.236 and 0.186 and 0.230 and 0.259 | change in F340/F380 evoked by 10 mM Ca2+ ([1]; 1 μM THCV, non-transfected Control for WT): 0.249 and 0.167 and 0.182 and 0.175 and 0.226 and 0.257 and 0.284 | change in F340/F380 evoked by 10 mM Ca2+ ([1]; 3 μM THCV, non-transfected Control for A561W): 0.179 and 0.153 and 0.129 and 0.145 | change in F340/F380 evoked by 10 mM Ca2+ ([1]; 3 μM THCV, non-transfected Control for L490W): 0.538 and 0.676 and 0.767 and 0.653 and 0.598 and 0.662 and 0.719 and 0.624 | change in F340/F380 evoked by 10 mM Ca2+ ([1]; 3 μM THCV, non-transfected Control for L568Q): 0.250 and 0.211 and 0.221 and 0.198 | change in F340/F380 evoked by 10 mM Ca2+ ([1]; 3 μM THCV, non-transfected Control for WT): 0.179 and 0.155 and 0.221 and 0.163 and 0.257 and 0.246 and 0.260 and 0.248 | change in F340/F380 evoked by 10 mM Ca2+ ([1]; 10 μM THCV, non-transfected Control for A561W): 0.140 and 0.130 and 0.114 and 0.151 | change in F340/F380 evoked by 10 mM Ca2+ ([1]; 10 μM THCV, non-transfected Control for L490W): 0.786 and 0.674 and 0.776 and 0.581 and 0.711 and 0.793 and 0.539 and 0.598 | change in F340/F380 evoked by 10 mM Ca2+ ([1]; 10 μM THCV, non-transfected Control for L568Q): 0.183 and 0.286 and 0.214 and 0.195 | change in F340/F380 evoked by 10 mM Ca2+ ([1]; 10 μM THCV, non-transfected Control for WT): 0.157 and 0.141 and 0.174 and 0.159 and 0.185 and 0.222 and 0.233 and 0.195 | change in F340/F380 evoked by 10 mM Ca2+ ([1]; 30 μM THCV, non-transfected Control for A561W): 0.167 and 0.140 and 0.127 and 0.125 | change in F340/F380 evoked by 10 mM Ca2+ ([1]; 30 μM THCV, non-transfected Control for L490W): 0.558 and 0.549 and 0.721 and 0.691 and 0.606 and 0.572 and 0.500 and 0.698 | change in F340/F380 evoked by 10 mM Ca2+ ([1]; 30 μM THCV, non-transfected Control for L568Q): 0.187 and 0.206 and 0.233 | change in F340/F380 evoked by 10 mM Ca2+ ([1]; 30 μM THCV, non-transfected Control for WT): 0.137 and 0.141 and 0.135 and 0.156 and 0.185 and 0.188 and 0.221 and 0.228 | change in F340/F380 evoked by 10 mM Ca2+ ([1]; 100 μM THCV, non-transfected Control for A561W): 0.497 | change in F340/F380 evoked by 10 mM Ca2+ ([1]; 100 μM THCV, non-transfected Control for L490W): 0.627 and 0.939 and 0.740 and 0.797 and 0.911 and 0.811 and 1.132 and 0.767 | change in F340/F380 evoked by 10 mM Ca2+ ([1]; 100 μM THCV, non-transfected Control for WT): 0.644 | ITHCV/IControl (human TRPV6): 0.123 ± 0.029 | effect on joint destruction (TRPV5): slow the progression of joint destruction | IC50 (L568Q mutant hTRPV6): 62.1 ± 18.2 µM | solubility [2]: 50 mM (≈ 14.3 mg/mL)
